The values that follow come from patent publication US6410558B1, “Fungicides for the control of take-all disease of plants” (Monsanto Technology LLC, priority 1991, dated 2002).

Read-outs that look alike come from different tables or passages of the source.

A word on the inhibition: it is the drop in the measured response relative to a control, in per cent.

The test system of one assay is Ggt. Nature of the assay: In vivo Assay: control of Ggt on wheat grown in pots of Ggt-infested soil, root disease rating. The arrangement: species or system Gaeumannomyces graminis var. tritici. As to conditions: Gaeumannomyces graminis, 672 h, read-out: In vivo, percent disease control. Summed up:
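Wheat ('Bergen' or 'Anza') seeds in soil infested with Ggt-colonised oats (4% v/v) treated at 0.5 mg active ingredient per pot in acetone/water with Tween 20; five pots per treatment. After four weeks, seminal roots rated 0–5; trimmed mean of three replicates converted to percent disease control versus untreated.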

For assay [1], the system named is Gaeumannomyces graminis var. tritici (Ggt). Nature of the assay: In vitro Assay: mycelial growth of Ggt on minimal media agar plates containing test compound. The assay is classed as cell-based. As to conditions: Gaeumannomyces graminis, dark, 19-20° C., 4 to 5 days, diameter of mycelial growth; for inhibition at 0.1 ppm: 0.1 ppm in minimal media agar, read-out: In vitro (ppm) 0.1, Percent Inhibition; for inhibition at 1 ppm: 1 ppm in minimal media agar, read-out: In vitro (ppm) 1, Percent Inhibition; for inhibition at 10 ppm: 10 ppm in minimal media agar, read-out: In vitro (ppm) 10, Percent Inhibition. In a few lines:
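Ggt mycelial diameter read after 4 to 5 days in darkness at 19-20° C, from three 4-mm plugs placed on Czapek Dox minimal agar containing test compound delivered in acetone. Inhibition expressed as percent versus untreated plates, plug size (4 mm) subtracted from both.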

Where [2] appears, read: 0.5 mg active ingredient per pot, 'Bergen' or 'Anza' wheat in Ggt-infested soil, after four weeks, vs untreated control.

Take `CCN(CC)C(=O)c1c([Si](C)(C)C)ccc(C)c1Cl` [Example 65, N,N-Diethyl-2-chloro-3-methyl-6-(trimethylsilyl)benzamide]: in the assay on Ggt (setting [2]), the pest or weed control at 0.5 mg/pot stood at 95%. In addition, in assay [1], the inhibition at 0.1 ppm is 39%, the inhibition at 1 ppm worked out at 56% and the inhibition at 10 ppm was 100%.

As for `C[Si](C)(C)c1cccc(Cl)c1C(=O)NCc1ccco1` [Example 32, 2-Chloro-N-(2-furylmethyl)-6-(trimethylsilyl)benzamide], the pest or weed control at 0.5 mg/pot with Ggt (setting [2]) worked out at 85%. For the same molecule, in assay [1], the inhibition at 0.1 ppm is 75%, the inhibition at 1 ppm stood at 100% and the inhibition at 10 ppm came out at 100%.

With `CN(Cc1ccc(C(F)(F)F)cc1)C(=O)c1c(Cl)cccc1[Si](C)(C)C` [Example 103, 2-Chloro-N-methyl-N-[[4-(trifluoromethyl)phenyl]-methyl]-6-(trimethylsilyl)-benzamide], in the assay on Ggt (setting [2]), the pest or weed control at 0.5 mg/pot worked out at 26%. Moreover, in assay [1], the inhibition at 0.1 ppm is below 0%, the inhibition at 1 ppm stood at 55% and the inhibition at 10 ppm came out at 92%.

In the case of `C[Si](C)(C)c1cccc(Cl)c1C(=O)NCCBr` [Example 153, N-(2-Bromoethyl)-2-chloro-6-(trimethylsilyl)benzamide], in the assay with Ggt (setting [2]), the pest or weed control at 0.5 mg/pot was found to be 29%. Further, in assay [1], the inhibition at 0.1 ppm was below 0%, the inhibition at 1 ppm came to 88% and the inhibition at 10 ppm was found to be 91%.

Consider `CCNC(=O)c1ccccc1N(C)C(C)(C)C` [Example 188, 2-[(1,1-Dimethylethyl)methylamino]-N-ethylbenzamide], for which, in the assay on Ggt (setting [2]), the pest or weed control at 0.5 mg/pot worked out at 15%. In assay [1], the inhibition at 0.1 ppm was 29%, the inhibition at 1 ppm came out at 71% and the inhibition at 10 ppm came out at 100%.

Take `CCN(CC)C(=O)c1c(C)cccc1C(C)(C)C` [Example 6, 2-(1,1-Dimethylethyl)-N,N-diethyl-6-methylbenzamide]: the pest or weed control at 0.5 mg/pot with Ggt (setting [2]) amounted to 37%. Further, in assay [1], the inhibition at 0.1 ppm was determined as 7%, the inhibition at 1 ppm stood at 2% and the inhibition at 10 ppm worked out at 47%.

Turning to `CCN(CC)C(=O)c1c(Cl)cccc1C[Si](C)(C)C` [Example 166, 2-Chloro-N,N-diethyl-6-[(trimethylsilyl)methyl]benzamide], the pest or weed control at 0.5 mg/pot in the assay with Ggt (setting [2]) was 15%. In addition, in assay [1], the inhibition at 0.1 ppm amounted to 4%, the inhibition at 1 ppm was below 0% and the inhibition at 10 ppm was 73%.

As to `C[Si](C)(C)c1cccc(Cl)c1C(=O)NC1CC1` [Example 34, 2-Chloro-N-cyclopropyl-6-(trimethylsilyl)benzamide], the pest or weed control at 0.5 mg/pot in the assay on Ggt (setting [2]) was 100%. Also, in assay [1], the inhibition at 0.1 ppm amounted to 97%, the inhibition at 1 ppm worked out at 100% and the inhibition at 10 ppm came out at 100%.

Consider `COc1ccccc1NC(=O)c1c(Cl)cccc1[Si](C)(C)C` [Example 159, 2-Chloro-N-(2-methoxyphenyl)-6-(trimethylsilyl)benzamide], for which the pest or weed control at 0.5 mg/pot in the assay on Ggt (setting [2]) came out at 0%. In assay [1], the inhibition at 0.1 ppm worked out at 12%, the inhibition at 1 ppm was 55% and the inhibition at 10 ppm is 100%.

In the case of `CC(C)(C)OC(=O)Nc1c(Cl)cccc1[Si](C)(C)C` [Example 111, [2-Chloro-6-(trimethylsilyl)phenyl]carbamic acid, 1,1-dimethylethyl ester], the pest or weed control at 0.5 mg/pot in the assay with Ggt (soil) stood at 48%. In assay [1], the inhibition at 0.1 ppm was 14%, the inhibition at 1 ppm came out at 66% and the inhibition at 10 ppm came to 100%.

For the molecule `CCN(CC)C(=O)c1cccc(F)c1[Si](C)(C)C` [Example 4, N,N-Diethyl-3-fluoro-2-(trimethylsilyl)benzamide], the pest or weed control at 0.5 mg/pot in the assay with Ggt (setting [2]) worked out at 54%. For the same molecule, in assay [1], the inhibition at 0.1 ppm is below 0%, the inhibition at 1 ppm is below 0% and the inhibition at 10 ppm was determined as 57%.

As to `CCNC(=O)c1c(Cl)cccc1NC(C)(C)C` [Example 192, 2-Chloro-6-[(1,1-dimethylethyl)amino]-N-ethylbenzamide], the pest or weed control at 0.5 mg/pot in the assay with Ggt (setting [2]) came to 99%. In assay [1], the inhibition at 0.1 ppm stood at 86%, the inhibition at 1 ppm came out at 95% and the inhibition at 10 ppm was determined as 95%.

For the molecule `C=CC[Si](C)(C)c1cccc(Cl)c1C(=O)NCC` [Example 179, 2-Chloro-6-(dimethyl-2-propenylsilyl)-N-ethylbenzamide], in the assay with Ggt (setting [2]), the pest or weed control at 0.5 mg/pot came out at 97%. Further, in assay [1], the inhibition at 0.1 ppm came out at 85%, the inhibition at 1 ppm was 88% and the inhibition at 10 ppm stood at 91%.

In the case of `CCN(CC)C(=O)c1c(C(F)(F)F)ccc(C(F)(F)F)c1[Si](C)(C)C` [Example 62, N,N-Diethyl-2-(trimethylsilyl)-3,6-bis(trifluoromethyl)benzamide], the pest or weed control at 0.5 mg/pot in the assay with Ggt (setting [2]) came to 9%. In assay [1], the inhibition at 0.1 ppm was determined as 8%, the inhibition at 1 ppm is 3% and the inhibition at 10 ppm was 69%.

With `C=CCNC(=O)NC(=O)c1c(Cl)cccc1[Si](C)(C)C` [Example 165, 2-Chloro-N-[(2-propenylamino)carbonyl]-6-(trimethylsilyl)benzamide], in the assay with Ggt (setting [2]), the pest or weed control at 0.5 mg/pot was 63%. Moreover, in assay [1], the inhibition at 0.1 ppm is below 0%, the inhibition at 1 ppm was 76% and the inhibition at 10 ppm was determined as 100%.

On to `CCN(CC)C(=O)c1c(C(F)(F)F)cccc1[Si](C)(C)C` [Example 61, N,N-Diethyl-2-(trimethylsilyl)-6-(trifluoromethyl)benzamide], for which the pest or weed control at 0.5 mg/pot in the assay on Ggt (setting [2]) was found to be 1%. Moreover, in assay [1], the inhibition at 0.1 ppm was 9%, the inhibition at 1 ppm was determined as 29% and the inhibition at 10 ppm was 49%.

With `CCNC(=O)c1c([Si](C)(C)C)ccc(CO)c1Cl` [Example 227, 2-Chloro-N-ethyl-3-(hydroxymethyl)-6-(trimethylsilyl)benzamide], the pest or weed control at 0.5 mg/pot in the assay with Ggt (setting [2]) stood at 34%. In assay [1], the inhibition at 0.1 ppm was 36%, the inhibition at 1 ppm came out at 68% and the inhibition at 10 ppm was determined as 100%.

In the case of `CCNC(=O)c1sc(Br)cc1[Si](C)(C)C` [Example 266, 5-Bromo-N-ethyl-3-(trimethylsilyl)-2-thiophenecarboxamide], in the assay on Ggt (setting [2]), the pest or weed control at 0.5 mg/pot worked out at 4%. Besides, in assay [1], the inhibition at 0.1 ppm stood at 21%, the inhibition at 1 ppm is 61% and the inhibition at 10 ppm came to 100%.

In the case of `CCN(CC)C(=O)c1c(Cl)cccc1[Si](C(C)C)(C(C)C)C(C)C` [Example 68, N,N-Diethyl-2-chloro-6-[tris(1-methylethyl)silyl]benzamide], the pest or weed control at 0.5 mg/pot with Ggt (setting [2]) is below 0%. Besides, in assay [1], the inhibition at 0.1 ppm came out at 8%, the inhibition at 1 ppm is below 0% and the inhibition at 10 ppm came out at 41%.

As for `CC(C)N(O)C(=O)c1c(Cl)cccc1[Si](C)(C)C` [Example 167, 2-Chloro-N-hydroxy-N-(1-methylethyl)-6-(trimethylsilyl)benzamide], the pest or weed control at 0.5 mg/pot with Ggt (setting [2]) was 93%. Further, in assay [1], the inhibition at 0.1 ppm turned out to be 46%, the inhibition at 1 ppm worked out at 86% and the inhibition at 10 ppm came out at 96%.

As to `CNC(=O)c1c(Cl)cccc1[Si](C)(C)C` [Example 19, 2-Chloro-N-methyl-6-(trimethylsilyl)-benzamide], the pest or weed control at 0.5 mg/pot in the assay with Ggt (setting [2]) was found to be 38%. In assay [1], the inhibition at 0.1 ppm was below 0%, the inhibition at 1 ppm turned out to be 7% and the inhibition at 10 ppm was determined as 29%.

As for `CCNC(=O)c1c([Si](C)(C)C)ccc([N+](=O)[O-])c1Cl` [Example 216, 2-Chloro-N-ethyl-3-nitro-6-(trimethylsilyl)benzamide], the pest or weed control at 0.5 mg/pot with Ggt (setting [2]) came to 68%. In addition, in assay [1], the inhibition at 0.1 ppm stood at 25%, the inhibition at 1 ppm is 54% and the inhibition at 10 ppm was 92%.

For `CC[C@@H](C)NC(=O)c1c(Cl)cccc1[Si](C)(C)C` [Example 151, 2-Chloro-N-(1-methylpropyl)-6-(trimethylsilyl)benzamide, (r)-], the pest or weed control at 0.5 mg/pot in the assay on Ggt (setting [2]) came to 97%. Moreover, in assay [1], the inhibition at 0.1 ppm is below 0%, the inhibition at 1 ppm was 71% and the inhibition at 10 ppm is 57%.

As for `CC[C@H](C)NC(=O)c1c(Cl)cccc1[Si](C)(C)C` [Example 152, 2-Chloro-N-(1-methylpropyl)-6-(trimethylsilyl)benzamide, (s)-], the pest or weed control at 0.5 mg/pot with Ggt (setting [2]) came out at 54%. In addition, in assay [1], the inhibition at 0.1 ppm is below 0%, the inhibition at 1 ppm is 71% and the inhibition at 10 ppm came out at 86%.

Take `C[Si](C)(C)c1cccc(Cl)c1C(=O)NCCF` [Example 155, 2-Chloro-N-(2-fluoroethyl)-6-(trimethylsilyl)benzamide]: the pest or weed control at 0.5 mg/pot in the assay on Ggt (setting [2]) was 93%. In addition, in assay [1], the inhibition at 0.1 ppm is below 0%, the inhibition at 1 ppm turned out to be 64% and the inhibition at 10 ppm was 90%.

As for `CN(C(=O)c1cccc(F)c1[Si](C)(C)C)C(C)(C)C` [Example 5, N-(1,1-Dimethylethyl)-3-fluoro-N-methyl-2-(trimethylsilyl)benzamide], the pest or weed control at 0.5 mg/pot with Ggt (setting [2]) worked out at 24%. Moreover, in assay [1], the inhibition at 0.1 ppm is below 0%, the inhibition at 1 ppm was below 0% and the inhibition at 10 ppm is 29%.
